Data from US9751837B2, “Kinase inhibitors” (RESPIVERT LIMITED, priority 2014, dated 2017).
Values after ≈ are worked out from the molar mass of the structure shown. Counter-ions that a name gives are not always drawn. Like-named read-outs stand apart in the source and are kept apart here.

Legend:
[1] = Solubility in fasted-state simulated colonic fluid (FaSSCoF) at pH 6.5; assay type: physicochemical; conditions: 25 °C, pH 6.5, fassgf or other biorelevant, thermodynamic from solid
Method in brief: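 Compounds were suspended at up to 2-10 mg/mL in pH 6.5 Tris/maleate FaSSCoF containing a five-bile-acid mixture, phosphatidylcholine, palmitic acid and BSA. After 24 h equilibration at 25° C the suspension was filtered and the filtrate quantified by HPLC peak area against a standard.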

[2] = target: hERG (Homo sapiens (Human), UniProt Q12809); test: hERG inhibition, IonWorks patch clamp electrophysiology; assay type: cell-based; conditions: human, hERG, read-out: % Inhibition at Top Concentration
Sequence of hERG (Q12809 whole entry): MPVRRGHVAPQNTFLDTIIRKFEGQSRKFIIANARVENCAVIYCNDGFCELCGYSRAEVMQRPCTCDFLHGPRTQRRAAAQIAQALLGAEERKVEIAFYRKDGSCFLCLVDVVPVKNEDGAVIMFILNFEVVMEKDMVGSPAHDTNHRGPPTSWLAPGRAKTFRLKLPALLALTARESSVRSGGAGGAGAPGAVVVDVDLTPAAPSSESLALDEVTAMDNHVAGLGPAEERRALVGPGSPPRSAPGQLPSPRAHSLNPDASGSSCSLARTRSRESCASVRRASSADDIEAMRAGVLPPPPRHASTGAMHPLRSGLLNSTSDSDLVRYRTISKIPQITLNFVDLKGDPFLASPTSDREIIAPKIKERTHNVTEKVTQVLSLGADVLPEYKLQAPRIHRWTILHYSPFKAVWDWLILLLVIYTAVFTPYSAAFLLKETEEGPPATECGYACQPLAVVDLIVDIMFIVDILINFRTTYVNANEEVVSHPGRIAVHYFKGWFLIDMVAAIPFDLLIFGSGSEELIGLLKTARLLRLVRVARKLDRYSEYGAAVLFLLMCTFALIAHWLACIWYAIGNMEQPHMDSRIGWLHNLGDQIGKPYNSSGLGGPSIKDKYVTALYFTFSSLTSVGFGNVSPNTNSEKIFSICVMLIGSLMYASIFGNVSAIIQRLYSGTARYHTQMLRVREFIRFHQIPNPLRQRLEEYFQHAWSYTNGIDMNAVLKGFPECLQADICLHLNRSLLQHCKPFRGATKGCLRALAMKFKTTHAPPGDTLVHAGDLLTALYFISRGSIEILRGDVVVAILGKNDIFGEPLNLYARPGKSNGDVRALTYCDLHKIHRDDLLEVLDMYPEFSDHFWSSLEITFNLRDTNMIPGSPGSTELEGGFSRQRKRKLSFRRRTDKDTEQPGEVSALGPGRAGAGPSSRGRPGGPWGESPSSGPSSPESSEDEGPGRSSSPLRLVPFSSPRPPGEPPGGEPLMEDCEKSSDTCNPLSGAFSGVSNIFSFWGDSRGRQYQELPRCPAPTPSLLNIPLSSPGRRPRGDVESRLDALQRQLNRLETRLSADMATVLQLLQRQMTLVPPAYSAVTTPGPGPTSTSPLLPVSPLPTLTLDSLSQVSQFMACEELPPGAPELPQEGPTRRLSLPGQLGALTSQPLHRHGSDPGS
Experimental: (§1) Compounds of the invention were tested for inhibition of the human ether a go-go (hERG) channel using IonWorks™ patch clamp electrophysiology at Essen Bioscience (Welwyn Garden City, England).

[3] = target: human ether a go-go (hERG) channel (Homo sapiens (Human), UniProt Q12809); test: as above; assay type: cell-based; conditions: IonWorks patch clamp
Sequence of human ether a go-go (hERG) channel (Q12809 whole entry): as above
Experimental: as §1

[4] = target: B-Raf (V600E) (Homo sapiens (Human), UniProt P15056, V600E); test: KINOMEscan binding of B-Raf (V600E) to its standard ligand
Sequence of B-Raf (V600E) (P15056 whole entry V600E): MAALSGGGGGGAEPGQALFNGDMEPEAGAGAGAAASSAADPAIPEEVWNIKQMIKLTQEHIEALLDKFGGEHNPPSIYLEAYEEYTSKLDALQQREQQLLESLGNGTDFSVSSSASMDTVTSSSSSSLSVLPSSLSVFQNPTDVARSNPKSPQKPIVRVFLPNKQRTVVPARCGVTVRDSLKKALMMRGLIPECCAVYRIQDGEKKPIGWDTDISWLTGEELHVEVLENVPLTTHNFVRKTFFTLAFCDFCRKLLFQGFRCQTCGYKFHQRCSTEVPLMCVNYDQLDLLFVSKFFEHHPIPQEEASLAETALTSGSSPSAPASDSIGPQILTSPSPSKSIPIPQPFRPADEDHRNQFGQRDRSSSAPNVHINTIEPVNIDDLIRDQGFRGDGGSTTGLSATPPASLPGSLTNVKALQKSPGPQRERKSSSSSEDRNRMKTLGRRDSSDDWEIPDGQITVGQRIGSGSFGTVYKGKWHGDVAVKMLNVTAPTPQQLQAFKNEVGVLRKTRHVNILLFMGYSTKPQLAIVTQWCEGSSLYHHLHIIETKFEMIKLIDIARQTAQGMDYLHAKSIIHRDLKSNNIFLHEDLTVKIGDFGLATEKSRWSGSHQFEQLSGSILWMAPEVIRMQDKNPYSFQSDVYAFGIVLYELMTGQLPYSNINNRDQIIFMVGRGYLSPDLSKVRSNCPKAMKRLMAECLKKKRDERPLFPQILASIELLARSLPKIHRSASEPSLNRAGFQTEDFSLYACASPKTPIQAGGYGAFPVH
Excerpt: (§2) These assays may be conducted by DiscoverX (formerly Ambit; San Diego, Calif.).

[5] = target: B-Raf (Homo sapiens (Human), UniProt P15056); test: KINOMEscan binding of B-Raf to its standard ligand
Sequence of B-Raf (P15056 whole entry): as the sequence (P15056 whole entry V600E) above, with E600V counted along it
Excerpt: as §2

[6] = system: non-mutant kinases; test: KinomeScan Selectivity Scores; assay type: binding; conditions: for KinomeScan Selectivity Score S(1): (non-mutant kinases with % Ctrl <1)/(non-mutant kinases tested); for KinomeScan Selectivity Score S(10): (non-mutant kinases with % Ctrl <10)/(non-mutant kinases tested)
Excerpt: as §2

[7] = target: GSK 3α (Homo sapiens (Human), UniProt P49840); test: GSK 3α enzyme inhibition (Method 2), Z-LYTE FRET; assay type: biochemical; conditions: read-out: IC50 Values for Enzyme Inhibition GSK3α
Sequence of GSK 3α (P49840 whole entry): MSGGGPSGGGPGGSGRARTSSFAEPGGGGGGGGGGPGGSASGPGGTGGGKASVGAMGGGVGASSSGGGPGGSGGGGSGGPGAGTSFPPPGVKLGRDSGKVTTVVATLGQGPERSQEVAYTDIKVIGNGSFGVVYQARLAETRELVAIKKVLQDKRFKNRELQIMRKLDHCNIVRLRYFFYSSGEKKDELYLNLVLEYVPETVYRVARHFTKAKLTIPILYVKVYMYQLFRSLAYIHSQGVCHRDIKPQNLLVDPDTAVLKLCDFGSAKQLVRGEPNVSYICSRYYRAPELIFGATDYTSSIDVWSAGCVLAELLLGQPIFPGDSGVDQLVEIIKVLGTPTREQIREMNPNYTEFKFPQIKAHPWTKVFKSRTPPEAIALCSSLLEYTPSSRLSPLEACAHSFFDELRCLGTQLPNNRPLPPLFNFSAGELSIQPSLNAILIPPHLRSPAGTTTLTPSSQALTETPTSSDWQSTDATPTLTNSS
Method in brief: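 Z-LYTE format: the protease cleaves only non-phosphorylated peptide, and the donor/acceptor (coumarin/fluorescein) ratio reports phosphorylation after a 1 hr kinase reaction with peptide (8 μM stock) and ATP (40 μM stock).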

[8] = target: Lck (Homo sapiens (Human), UniProt P06239); test: KINOMEscan dissociation constant, Lck; assay type: binding
Sequence of Lck (P06239 whole entry): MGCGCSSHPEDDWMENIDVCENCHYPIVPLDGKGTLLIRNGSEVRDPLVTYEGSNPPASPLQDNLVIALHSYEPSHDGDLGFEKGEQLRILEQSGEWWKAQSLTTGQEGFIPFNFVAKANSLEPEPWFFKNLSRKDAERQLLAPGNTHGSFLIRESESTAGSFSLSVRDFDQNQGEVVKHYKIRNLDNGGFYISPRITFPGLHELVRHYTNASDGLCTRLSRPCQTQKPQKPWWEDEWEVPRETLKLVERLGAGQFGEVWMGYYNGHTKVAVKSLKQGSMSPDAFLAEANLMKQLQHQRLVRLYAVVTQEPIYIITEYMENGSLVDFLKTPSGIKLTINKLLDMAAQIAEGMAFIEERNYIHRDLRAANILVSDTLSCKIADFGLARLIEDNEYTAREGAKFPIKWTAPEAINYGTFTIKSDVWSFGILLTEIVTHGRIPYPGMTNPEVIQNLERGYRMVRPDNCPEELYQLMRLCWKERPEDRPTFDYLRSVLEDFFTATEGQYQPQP
Excerpt: as §2

[9] = target: Syk (Homo sapiens (Human), UniProt P43405); test: KINOMEscan dissociation constant, Syk; assay type: binding
Excerpt: as §2

[10] = target: p38 MAPKα (Homo sapiens (Human), UniProt Q16539); test: KINOMEscan dissociation constant, p38 MAPKα; assay type: binding
Sequence of p38 MAPKα (Q16539 whole entry): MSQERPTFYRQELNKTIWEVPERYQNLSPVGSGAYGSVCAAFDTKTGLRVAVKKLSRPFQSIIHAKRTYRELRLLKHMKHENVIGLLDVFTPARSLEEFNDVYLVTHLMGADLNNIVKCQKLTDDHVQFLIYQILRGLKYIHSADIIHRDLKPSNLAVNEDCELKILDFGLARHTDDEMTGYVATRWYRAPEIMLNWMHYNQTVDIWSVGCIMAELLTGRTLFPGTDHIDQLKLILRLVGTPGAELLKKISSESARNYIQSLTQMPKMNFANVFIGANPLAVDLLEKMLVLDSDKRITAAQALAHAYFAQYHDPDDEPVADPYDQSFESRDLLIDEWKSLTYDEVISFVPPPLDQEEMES
Excerpt: as §2

[11] = system: Jurkat cells; test: Cell cytotoxicity assay (r); assay type: cell-based, human; conditions: 24 hours
Method in brief: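 Viability read by flow cytometry as the fraction of propidium iodide-negative cells (7.5 μg/mL PI, 15 min), relative to 1.0% DMSO control. Beforehand, 1×10^5 Jurkat cells in RPMI/10% FBS were treated 24 h at 37° C., 5% CO2 with test compound at final 20, 5 or 1 μg/mL.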

[12] = Stability of pharmaceutical formulations (HPLC); assay type: physicochemical; conditions: 1 mg/mL solution; for Purity (%) at week n = 4: 4 weeks
Experimental: The samples were sonicated to achieve clear solutions having the following properties: Osmolality (mOsm/kg): 310 (Na), 314 (HCl); pH: 7.00 (Na), 7.05 (HCl). 0.5 mL of the stock solutions were diluted to 1 mL with 20% DMSO in water & injected for purity analysis by HPLC. The remaining stock solutions were then split into aliquots of 0.5 mL in HPLC vials, and stored at various conditions in duplicate. Samples were stored at 5 and 25° C., before being analysed by HPLC at 1, 2 and 4 weeks. Separate samples were stored at 40° C. and analysed at 4 weeks.

[13] = Pharmacokinetics and total colon distribution after single oral administration; assay type: in vivo, male C57BL/6 mice; conditions: male, C57BL/6, mouse, mice, oral 5 mg/kg
Experimental: Studies were conducted by Sai Life Sciences (Hinjewadi, Pune, India) to investigate the systemic pharmacokinetics and total colon tissue distribution of compounds of the invention. In particular, pharmacokinetic studies were carried out in male C57BL/6 mice following a single oral administration of the compound.

[14] = pH 6.5 FaSSCoF Solubility (mg/mL) Run 1
[15] = pH 6.5 FaSSCoF Solubility (mg/mL) Run 2
[16] = blood, measured cpd = dosed cpd (19, 47 as Na salt), read-out: Mean blood concentration
[17] = total colon tissue, measured cpd = dosed cpd (1, 19, 47 as Na salt, 44 as NH4+ salt), read-out: total colon level
[18] = total colon, measured cpd = dosed cpd (1, 19, 47 as Na salt, 44 as NH4+ salt), read-out: total colon level

Structure (SMILES): COc1cc(Nc2cc(Oc3ccc(NC(=O)Nc4cc(C(C)(C)C)cc(NS(C)(=O)=O)c4OC)c4ccccc34)ccn2)cc(OC)c1C(=O)NCCOCCOCCO [Example 36, 4-((4-((4-(3-(5-(tert-butyl)-2-methoxy-3-(methylsulfonamido)phenyl)ureido)naphthalen-1-yl)oxy)pyridin-2-yl)amino)-N-(2-(2-(2-hydroxyethoxy)ethoxy)ethyl)-2,6-dimethoxybenzamide]
- solubility thermodynamic at 24 h [1, 14]: 6 µg/mL (≈ 6.97 µM)
- solubility thermodynamic at 24 h [1, 15]: 6 µg/mL (≈ 6.97 µM)
- inhibition at 11 µM [2]: 24%
- IC50 [3]: > 11000 nM
- effect on the binding of B-Raf (V600E) to its standard ligand [4]: did not have any significant effect
- effect on the binding of B-Raf to its standard ligand [5]: did not have any significant effect
- KinomeScan Selectivity Score S(1) ([6]; 50 nM): 0.002
- KinomeScan Selectivity Score S(10) ([6]; 50 nM): 0.050
- KinomeScan Selectivity Score S(1) ([6]; 500 nM): 0.079

Structure (SMILES): COc1cc(Nc2cc(Oc3ccc(NC(=O)Nc4cc(C(C)(C)C)cc(NS(C)(=O)=O)c4OC)c4ccccc34)ccn2)ccc1C(=O)NCCN1CCOCC1 [Example 2, 4-((4-((4-(3-(5-(tert-Butyl)-2-methoxy-3-(methylsulfonamido)phenyl)ureido)naphthalen-1-yl)oxy)pyridin-2-yl)amino)-2-methoxy-N-(2-morpholinoethyl)benzamide]
- IC50 [7]: 2300 nM
- inhibition at 3 µM [2]: -2%
- IC50 [3]: > 3300 nM
- Kd [8]: 5.8 nM
- Kd [9]: 18 nM
- Kd [10]: 23 nM

Structure (SMILES): COc1cc(Nc2cc(Oc3ccc(NC(=O)Nc4cc(C(C)(C)C)cc(N(CCO)S(C)(=O)=O)c4OC)c4ccccc34)ccn2)ccc1C(=O)NCCN1CC[S+]([O-])CC1 [Example 48, 4-((4-((4-(3-(5-(tert-Butyl)-3-(N-(2-hydroxyethyl)methylsulfonamido)-2-methoxyphenyl)-ureido)naphthalen-1-yl)oxy)pyridin-2-yl)amino)-2-methoxy-N-(2-(1-oxidothiomorpholino)-ethyl)benzamide]
- solubility thermodynamic at 24 h [1, 14]: 11 µg/mL (≈ 12.4 µM)
- solubility thermodynamic at 24 h [1, 15]: 10 µg/mL (≈ 11.3 µM)
- inhibition at 11 µM [2]: -6%
- IC50 [3]: > 11000 nM
- % Viability at 1 μg/mL ([11]; 1 μg/mL): 89.0%

Structure (SMILES): COc1cc(Nc2cc(Oc3ccc(NC(=O)Nc4cc(C(C)(C)C)cc(NS(C)(=O)=O)c4OC)c4ccccc34)ccn2)ccc1C(=O)O [Example 1, sodium salt]
- Purity (%) at week n = 4 ([12]; stored at 40° C.): 76.0%

Structure (SMILES): COc1cc(Nc2cc(Oc3ccc(NC(=O)Nc4cc(C(C)(C)C)cc(NS(C)(=O)=O)c4OC)c4ccccc34)ccn2)ccc1C(=O)O.Cl [Example 1, hydrochloride salt]
- Purity (%) at week n = 2 ([12]; stored at 5° C., 2 weeks): 98.0%
- Purity (%) at week n = 4 ([12]; stored at 5° C.): 98.0%
- Purity (%) at week n = 1 ([12]; stored at 25° C., 1 week): 98.0%

Structure (SMILES): COc1cc(Nc2cc(Oc3ccc(NC(=O)Nc4cc(C(C)(C)C)cc(NS(C)(=O)=O)c4OC)c4ccccc34)ccn2)cc(OC)c1C(=O)NCCOCCOCCOP(=O)(O)O [Example 47, 2-(2-(2-(4-((4-((4-(3-(5-(tert-butyl)-2-methoxy-3-(methylsulfonamido)phenyl)ureido)-naphthalen-1-yl)oxy)pyridin-2-yl)amino)-2,6-dimethoxybenzamido)ethoxy)ethoxy)ethyl dihydrogen phosphate]
- inhibition at 11 µM [2]: 19%
- IC50 [3]: > 11000 nM
- % Viability at 5 μg/mL ([11]; 5 μg/mL): 96.0%
- effect on the binding of B-Raf (V600E) to its standard ligand [4]: did not have any significant effect
- effect on the binding of B-Raf to its standard ligand [5]: did not have any significant effect
- concentration at 0.5 h [13, 16]: 0 ng/mL
- concentration at 1 h [13, 16]: 0 ng/mL
- concentration at 2 h [13, 16]: 0 ng/mL
- concentration at 4 h [13, 16]: 0 ng/mL
- concentration at 6 h [13, 16]: 0 ng/mL
- concentration at 8 h [13, 16]: 0 ng/mL
- concentration at 12 h [13, 16]: 0 ng/mL
- concentration at 24 h [13, 16]: 0 ng/mL
- concentration at 2 h [13, 17]: 0 ng/g
- concentration at 4 h [13, 17]: 0 ng/g
- concentration at 6 h [13, 17]: 0 ng/g
- concentration at 8 h [13, 17]: 0 ng/g
- concentration at 12 h [13, 17]: 0 ng/g
- concentration at 0.5 h [13, 18]: 0 ng/g
- concentration at 1 h [13, 18]: 0 ng/g
- concentration at 24 h [13, 18]: 0 ng/g
- KinomeScan Selectivity Score S(10) ([6]; 50 nM): 0.042
- KinomeScan Selectivity Score S(1) ([6]; 500 nM): 0.074

Structure (SMILES): COc1cc(Nc2cc(Oc3ccc(NC(=O)Nc4cc(C(C)(C)C)cc(NS(C)(=O)=O)c4OC)c4ccccc34)ccn2)ccc1C(=O)NC1CCN(C)CC1 [17(j), 4-[[4-[[4-[[5-tert-butyl-3-(methanesulfonamido)-2-methoxy-phenyl]carbamoylamino]-1-naphthyl]oxy]-2-pyridyl]amino]-2-methoxy-N-(1-methyl-4-piperidyl)benzamide]
- IC50 [7]: 2000 nM
- inhibition at 3 µM [2]: 7%
- IC50 [3]: > 3300 nM
